According to patent publication US20250082633A1, “COMPOUNDS AND METHODS FOR MODULATING SPLICING” (REMIX THERAPEUTICS INC., priority 2021, published 2025):
pIC50: −log10 of the molar value. Like-named read-outs stand apart in the source and are kept apart here.

Columns and labels:
Target C = assay: RT-qPCR splicing assay, gene panel, Target C canonical junction (CJ) mRNA; format: cell-based; conditions: Homo sapiens, read-out: Target C CJ IC50
Summary of the method: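 A673 (DMEM/10% FBS) or K562 (IMDM/10% FBS) cells were treated 24 h at 37 °C with an 11-point 3-fold dilution series, top final 10 uM, DMSO ≤0.25%. Lysates underwent one-step RT-qPCR for the canonical-junction isoform with GAPDH, GUSB or PPIA as housekeeper. ΔΔCt versus DMSO was converted to RQ (2^−ΔΔCt), then to percent response.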

[1] = tested on: HiBiT-tagged HTT protein in K562 cells; assay: HiBit protein abundance assay, HTT; format: cell-based, human; conditions: K562 HiBiT-modified cells, 24 hours, luminescence
Experimental: Compounds described herein were used to screen for effects on quantitative protein abundance using a HiBit assay system (Promega). Quantitative protein abundance was determined by measuring the protein levels of HiBit-tagged protein targets expressed in cell culture via luminescence using the Nano-Glo HiBiT Lytic Detection System, which uses a split complementation assay format to reconstitute NanoBiT enzyme to generate a luminescent signal. A protein abundance assay was developed such that endogenous protein targets could be modified with the HiBiT peptide tag and their abundance could be assessed after compound treatment. Briefly, K562 cell lines containing a HiBiT-modification were treated with various compounds described herein (e.g., compounds of Formulas (I), (II), or (III)). After treatment for 24 hours, the protein abundance of a specific target was determined by measuring luminescence. • Promega Nano-Glo HiBiT Lytic Detection System (cat #N3030) • Corning 384-well TC-treated microplates (cat #3570) • Synthego Engineered Cells Knock-In Clones [table] Cells were maintained in IMDM with 10% FBS. Before the assay, cells were diluted with phenolphthalein-free growth media (IMDM+1% FBS media) and were seeded in a 384-well plate at a density of 10000 cells/well (for each cell line listed in Table 6). Each compound was prepared as a 10-point 3-fold serial dilution in DMSO with the top dose at a final concentration of 10 μM in the well. Unmodified K562 cells were added at the previously specified density with DMSO to serve as an assay baseline and positive control (PC) and DMSO only with the respective modified cell lines was added to the negative control (NC) columns. Final DMSO concentration was kept at or below 0.25%. Treated cell plates were placed in an incubator at 37° C. with 5% CO2 for 24 hours. After 24 hours, 25 μL of Complete HiBit Lytic reagent was added to each well at room temperature (e.g. one plate requiring 10 mL Lytic Buffer, 100 μL LgBiT Protein, 200 μL Lytic Substrate), shaken for 5 minutes at 600 RPM, then left to sit for 10 minutes for signal to stabilize before reading on a Spark Cyto plate reader (Tecan) with a 500 ms measurement time. To determine compound effects on protein abundance of each target in Table 6, the percent response for each respective cell line was calculated at each compound concentration as follows: For the normalized response at each concentration, a four-parameter logistical regression was fit to the data and the response was interpolated at the 50% value to determine a concentration for protein abundance at 50% (IC50) the untreated control.

[2] = decrease in CJ mRNA levels, larger panel of genes, Table 3

| pIC50 (Target C; [2]) | pIC50 [1] | Structure (SMILES) | pIC50 (Target C) |
| --- | --- | --- | --- |
| 6.00 to 7.00 | > 7.00 | Cc1cn2nc(-c3cc(F)c4nn(C5CCN(C)CC5)cc4c3)cc(C)c2n1 [Compound 150, 6-[7-fluoro-2-(1-methyl-4-piperidyl)indazol-5-yl]-2,8-dimethyl-imidazo[1,2-b]pyridazine] | – |
| < 5.00 | 5.00 to 6.00 | Cc1cn2nc(-c3cc4cn(C5CCNCC5)nc4c(OCc4ccccc4)n3)cc(C)c2n1 [Compound 153, 6-[7-benzyloxy-2-(4-piperidyl)pyrazolo [3,4-c]pyridin-5-yl]-2,8-dimethyl-imidazo[1,2-b]pyridazine] | – |
| 6.00 to 7.00 | > 7.00 | Cc1cn2nc(-c3cc4cn(C5CCNCC5)nc4cc3O)cc(C)c2n1 [Compound 154, 5-(2,8-dimethylimidazo[1,2-b]pyridazin-6-yl)-2-(piperidin-4-yl)-2H-indazol-6-ol] | – |
| 6.00 to 7.00 | > 7.00 | COc1cc(-c2cc(C)c3nc(C)cn3n2)cc2cn(C3CCNCC3)nc12 [Compound 155, 6-(7-methoxy-2-(piperidin-4-yl)-2H-indazol-5-yl)-2,8-dimethylimidazo [1,2-b]pyridazine] | – |
| 5.00 to 6.00 | 6.00 to 7.00 | Cc1cn2nc(-c3cc(O)c4nn(C5CCNCC5)cc4c3)cc(C)c2n1 [Compound 156, 5-(2,8-dimethylimidazo[1,2-b]pyridazin-6-yl)-2-(piperidin-4-yl)-2H-indazol-7-ol] | – |
| < 5.00 | 5.00 to 6.00 | Cc1ccc2nc(-c3cc(F)c4nn(C5CCNCC5)cc4c3)ccc2n1 [Compound 157, 2-[7-fluoro-2-(4-piperidyl)indazol-5-yl]-6-methyl-1,5-naphthyridine] | – |
| < 5.00 | 5.00 to 6.00 | Fc1cc(-c2ccc3ccncc3c2)cc2cn(C3CCNCC3)nc12 [Compound 158, 7-[7-fluoro-2-(4-piperidyl)indazol-5-yl]isoquinoline] | – |
| 5.00 to 6.00 | 6.00 to 7.00 | Fc1cc(-c2ccc3cnccc3c2)cc2cn(C3CCNCC3)nc12 [Compound 161, 6-[7-fluoro-2-(4-piperidyl)indazol-5-yl]isoquinoline] | – |
| < 5.00 | 5.00 to 6.00 | Fc1cc(-c2ccc3ncccc3c2)cc2cn(C3CCNCC3)nc12 [Compound 162, 6-[7-fluoro-2-(4-piperidyl)indazol-5-yl]quinoline] | – |
| < 5.00 | 5.00 to 6.00 | Cc1ccc2cc(-c3cc(F)c4nn(C5CCNCC5)cc4c3)ccc2n1 [Compound 163, 6-[7-fluoro-2-(4-piperidyl)indazol-5-yl]-2-methyl-quinoline] | – |
| < 5.00 | < 5.00 | Cc1ncc2cc(-c3cc(F)c4nn(C5CCNCC5)cc4c3)ccc2n1 [Compound 165, 6-[7-fluoro-2-(4-piperidyl)indazol-5-yl]-2-methyl-quinazoline] | – |
| > 7.00 | > 7.00 | Cc1cn2nc(-c3cc(F)c4nn(C5CCNC6(CC6)C5)cc4c3)cc(C)c2n1 (centres unmarked) [Compound 171, 6-[2-(4-azaspiro[2.5]octan-7-yl)-7-fluoro-indazol-5-yl]-2,8-dimethyl-imidazo[1,2-b]pyridazine] | – |
| > 7.00 | > 7.00 | Cc1cn2nc(-c3cc(F)c4nn([C@H]5CCNC6(CC6)C5)cc4c3)cc(C)c2n1 [Compound 172] | – |
| 6.00 to 7.00 | > 7.00 | Cc1cn2nc(-c3cc(F)c4nn([C@@H]5CCNC6(CC6)C5)cc4c3)cc(C)c2n1 [Compound 173] | – |
| 6.00 to 7.00 | > 7.00 | Cc1cn2nc(-c3ccc4nn(C5CCNCC5)cc4c3)cc(C)c2n1 [Compound 192, 2,8-dimethyl-6-[2-(4-piperidyl)indazol-5-yl]imidazo[1,2-b]pyridazine] | – |

Continued, molecule first:

| Structure (SMILES) | pIC50 (Target C; [2]) | pIC50 [1] | pIC50 (Target C) |
| --- | --- | --- | --- |
| Cc1cn2nc(-c3cc(F)c4nn(C5CCN(C6CCC6)CC5)cc4c3)cc(C)c2n1 [Compound 151, 6-[2-(1-cyclobutyl-4-piperidyl)-7-fluoro-indazol-5-yl]-2,8-dimethyl-imidazo [1,2-b] pyridazine] | – | > 7.00 | > 7.00 |
| Cc1cn2nc(-c3cc(F)c4nn(C5CCN(CCF)CC5)cc4c3)cc(C)c2n1 [Compound 152] | 6.00 to 7.00 | > 7.00 | – |
| COc1cc2nn(C3CCNCC3)cc2cc1-c1cc(C)c2nc(C)cn2n1 [Compound 159, 6-(6-methoxy-2-(piperidin-4-yl)-2H-indazol-5-yl)-2,8-dimethylimidazo[1,2-b]pyridazine] | < 5.00 | < 5.00 | – |
| Cc1cn2nc(-c3cc(F)c4nn(C5CCN(CCO)CC5)cc4c3)cc(C)c2n1 [Compound 160, 2-[4-[5-(2,8-dimethylimidazo[1,2-b]pyridazin-6-yl)-7-fluoro-indazol-2-yl]-1-piperidyl]ethanol] | – | > 7.00 | 6.00 to 7.00 |
| Cc1cn2nc(-c3cc(F)c4nn(C5CCNCC5F)cc4c3)cc(C)c2n1 (centres unmarked) [Compound 166, 6-[7-fluoro-2-(3-fluoro-4-piperidyl)indazol-5-yl]-2,8-dimethyl-imidazo [1,2-b]pyridazine] | 6.00 to 7.00 | > 7.00 | – |
| Cc1cn2nc(-c3cc(F)c4nn([C@H]5CCNC[C@@H]5F)cc4c3)cc(C)c2n1 [Compound 167, 6-(7-fluoro-2-((3S,4S)-3-fluoropiperidin-4-yl)-2H-indazol-5-yl)-2,8-dimethylimidazo[1,2-b]pyridazine] | 6.00 to 7.00 | 6.00 to 7.00 | – |
| Cc1cn2nc(-c3cc(F)c4nn([C@@H]5CCNC[C@H]5F)cc4c3)cc(C)c2n1 [Compound 168, 6-(7-fluoro-2-((3R,4R)-3-fluoropiperidin-4-yl)-2H-indazol-5-yl)-2,8-dimethylimidazo [1,2-b]pyridazine] | 6.00 to 7.00 | > 7.00 | – |
| Cc1cn2nc(-c3cc(F)c4nn(C5CCN(C)C6(CC6)C5)cc4c3)cc(C)c2n1 (centres unmarked) [Compound 174, 6-[7-fluoro-2-(4-methyl-4-azaspiro[2.5]octan-7-yl)indazol-5-yl]-2,8-dimethyl-imidazo[1,2-b]pyridazine] | > 7.00 | > 7.00 | – |
| CCN1CCC(n2cc3cc(-c4cc(C)c5nc(C)cn5n4)cc(F)c3n2)CC12CC2 (centres unmarked) [Compound 177, 6-[2-(4-ethyl-4-azaspiro[2.5]octan-7-yl)-7-fluoro-indazol-5-yl]-2,8-dimethyl-imidazo[1,2-b]pyridazine] | > 7.00 | > 7.00 | – |
| Cc1cn2nc(-c3cc(F)c4nn(C5CCN(CCO)C6(CC6)C5)cc4c3)cc(C)c2n1 (centres unmarked) [Compound 180, 2-[7-[5-(2,8-dimethylimidazo[1,2-b]pyridazin-6-yl)-7-fluoro-indazol-2-yl]-4-azaspiro[2.5]octan-4-yl]ethanol] | – | > 7.00 | 6.00 to 7.00 |
| Cc1cn2nc(-c3cc(F)c4nn(C5CCN(CC6CC6)C6(CC6)C5)cc4c3)cc(C)c2n1 (centres unmarked) [Compound 183, 6-[2-[4-(cyclopropylmethyl)-4-azaspiro[2.5]octan-7-yl]-7-fluoro-indazol-5-yl]-2,8-dimethyl-imidazo[1,2-b]pyridazine] | > 7.00 | > 7.00 | – |
| Cc1cn2nc(-c3cc(F)c4nn(C5CCN(C6CCC6)C6(CC6)C5)cc4c3)cc(C)c2n1 (centres unmarked) [Compound 186, 6-[2-(4-cyclobutyl-4-azaspiro[2.5]octan-7-yl)-7-fluoro-indazol-5-yl]-2,8-dimethyl-imidazo[1,2-b]pyridazine] | – | > 7.00 | > 7.00 |
| Cc1cn2nc(-c3cc(F)c4nn(C5CCNC6(CCC6)C5)cc4c3)cc(C)c2n1 (centres unmarked) [Compound 189, 6-[2-(5-azaspiro[3.5]nonan-8-yl)-7-fluoro-indazol-5-yl]-2,8-dimethyl-imidazo[1,2-b]pyridazine] | 6.00 to 7.00 | > 7.00 | – |
